Laboratory results as given in ChEMBL document CHEMBL1121629, “1-(Aminoalkyl)-6-aryl-4-H-s-triazolo[4,3-a][1,4]benzodiazepines with antianxiety and antidepressant activity” (1980).

Legend:
Assay type in all cases: functional
Mus musculus [1] = species on record: Mus musculus; experiment: Tested for potentiation of gamma-butyrolactone induced sleep (gamma-B) in mice
Mus musculus [2] = species on record: Mus musculus; experiment: Tested for antagonism of nicotine-induced tonic extensor convulsions (TE) in mice
Mus musculus [3] = species on record: Mus musculus; experiment: Tested for antagonism of oxotremorine hypothermia (OX) in mice
Mus musculus [4] = species on record: Mus musculus; experiment: Prolongation of hypoxic survival time (HS) in mice
Mus musculus [5] = species on record: Mus musculus; experiment: Tested for stereotyped gnawing and licking behavior of mice pretreated with apomorphine (AG)
Mus musculus [6] = species on record: Mus musculus; experiment: Tested for antagonism of pentylenetetrazole-induced clonic convulsions (P) in mice
Mus musculus [7] = species on record: Mus musculus; experiment: Tested for potentiation of yohimbine toxicity in aggregated mice(Y)
Mus musculus [8] = species on record: Mus musculus; experiment: Tested for antagonism of nicotine-induced death (D) in mice
Mus musculus [9] = species on record: Mus musculus; experiment: Tested for antagonism of bicuculline-induced tonic-extensor convulsions (B) in mice

SMILES | ED50 (Mus musculus [1]) [mg/kg] | ED50 (Mus musculus [2]) [mg/kg] | ED50 (Mus musculus [3]) [mg/kg] | ED50 (Mus musculus [4]) [mg/kg] | ED50 (Mus musculus [5]) [mg/kg] | ED50 (Mus musculus [6]) [mg/kg] | ED50 (Mus musculus [7]) [mg/kg] | ED50 (Mus musculus [8]) [mg/kg] | ED50 (Mus musculus [9]) [mg/kg]
C#CCN(C)Cc1nnc2n1-c1ccc(Cl)cc1C(c1ccccc1)=NC2 | 0.3 | 0.14 | 30 | > 50 | 4.4 | 0.3 | 18 | 0.14 | 0.5
CC(N)c1nnc2n1-c1ccccc1C(c1ccccc1Cl)=NC2 (configuration not stated) | 3 | – | > 50 | 0.2 | > 50 | 0.2 | > 50 | – | 0.4
Clc1ccc2c(c1)C(c1ccccc1)=NCc1nnc(CCCN3CCOCC3)n1-2 | 10 | 5.6 | > 50 | 7 | > 50 | 10 | > 50 | 5.6 | 7.1
CN(C)Cc1nnc2n1-c1ccc(Br)cc1C(c1ccccc1)=NC2 | 0.1 | – | 7.4 | 0.8 | > 50 | 0.7 | 35.4 | – | 0.8
CC(N)c1nnc2n1-c1ccc(Cl)cc1C(c1ccccc1)=NC2 (configuration not stated) | 0.12 | 0.3 | > 50 | 3 | > 50 | 0.6 | > 50 | 0.35 | 0.6
NCCc1nnc2n1-c1ccccc1C(c1ccccc1Cl)=NC2 | 20 | – | > 50 | 20 | > 50 | > 50 | > 50 | – | > 50
CC(N)c1nnc2n1-c1ccc(Cl)cc1C(c1ccccc1Cl)=NC2 (configuration not stated) | 0.2 | 0.023 | > 50 | 0.02 | > 50 | 2.2 | > 50 | 0.025 | 0.2
C#CCNC(C)c1nnc2n1-c1ccc(Cl)cc1C(c1ccccc1)=NC2 (configuration not stated) | 0.8 | 1.1 | > 50 | 20 | > 50 | 3.1 | 21 | 1.1 | 1.6
NCCc1nnc2n1-c1ccc(Br)cc1C(c1ccccn1)=NC2 | 30 | – | 30 | > 50 | > 50 | > 50 | 30 | – | > 50
NCCc1nnc2n1-c1ccc(Cl)cc1C(c1ccccc1)=NC2 | 7.4 | 7.1 | 4.4 | > 50 | 35 | 10.5 | 50 | 6.3 | 17.7
CN(C)Cc1nnc2n1-c1ccc(Cl)cc1C(c1ccccc1)NC2 (configuration not stated) | 5.3 | 25 | > 50 | > 50 | > 50 | 14.9 | > 50 | 25 | 42
NCCc1nnc2n1-c1ccccc1C(c1ccccc1)=NC2 | > 50 | – | 40 | > 50 | 30 | > 50 | 30 | – | > 50
CNC(C)c1nnc2n1-c1ccc(Cl)cc1C(c1ccccc1)=NC2 (configuration not stated) | 3.7 | 0.9 | > 50 | 0.5 | 50 | 4.4 | 30 | 1 | 9
Clc1ccc2c(c1)C(c1ccccc1)=NCc1nnc(CCCN3CCN(c4ccccc4)CC3)n1-2 | 10 | 89 | – | > 50 | – | > 50 | – | 79 | > 50
CC(N)Cc1nnc2n1-c1ccccc1C(c1ccccc1)=NC2 (configuration not stated) | > 50 | – | > 50 | > 50 | > 50 | > 50 | 40 | – | > 50
CN(C)Cc1nnc2cc(-c3ccccc3)c3cc(Cl)ccc3n12 | > 50 | 89 | > 50 | – | > 50 | > 50 | – | 89 | > 50
CN(C)CCc1nnc2n1-c1ccccc1C(c1ccccc1Cl)=NC2 | > 50 | – | > 50 | 7 | > 50 | 5 | 30 | – | > 50
CC(N)Cc1nnc2n1-c1ccc(Cl)cc1C(c1ccccc1Cl)=NC2 (configuration not stated) | 3.7 | – | 17.7 | 25 | > 50 | 10.5 | > 50 | – | 7.4
CN(C)Cc1nnc2n1-c1ccccc1C(c1ccccc1Cl)=NC2 | > 10 | 0.13 | > 30 | 0.5 | > 30 | 10 | > 30 | – | 17.8
CN(C)CCc1nnc2n1-c1ccc(Br)cc1C(c1ccccn1)=NC2 | 10 | – | 4 | > 50 | 9 | 20 | 4 | – | > 50

SMILES | ED50 (Mus musculus [1]) [mg/kg] | ED50 (Mus musculus [2]) [mg/kg] | ED50 (Mus musculus [3]) [mg/kg] | ED50 (Mus musculus [4]) [mg/kg] | ED50 (Mus musculus [5]) [mg/kg] | ED50 (Mus musculus [6]) [mg/kg] | ED50 (Mus musculus [7]) [mg/kg] | ED50 (Mus musculus [8]) [mg/kg] | ED50 (Mus musculus [9]) [mg/kg]
CN(C)CCc1nnc2n1-c1ccc(Br)cc1C(c1ccccc1)=NC2 | 5 | – | 0.9 | 5 | > 50 | 5 | 3 | – | 7
C#CCN(C)Cc1nnc2n1-c1ccccc1C(c1ccccc1Cl)=NC2 | 8 | – | > 50 | 3 | > 50 | 2 | > 50 | – | 2
CCN(CC)CCc1nnc2n1-c1ccc(Cl)cc1C(c1ccccc1)=NC2 | 15 | 2 | 42 | 40 | > 50 | 25 | > 50 | 2 | > 50
CC(N)Cc1nnc2n1-c1ccc(Br)cc1C(c1ccccn1)=NC2 (configuration not stated) | 40 | – | > 50 | > 50 | 20 | > 50 | 7 | – | > 50
CN(C)Cc1nnc2n1-c1ccc(Cl)cc1/C(c1ccccc1)=N\CC2 | 15 | > 100 | > 50 | – | > 50 | > 50 | > 50 | – | > 50
CN1CCN(Cc2nnc3n2-c2ccc(Cl)cc2C(c2ccccc2)=NC3)CC1 | 20 | 4.5 | > 100 | 50 | > 100 | 100 | > 100 | 5 | 100
CN(C)OCc1nnc2n1-c1ccc(Cl)cc1C(c1ccccc1)=NC2 | 0.1 | – | > 50 | > 0.2 | > 50 | 0.2 | > 50 | – | 0.2
CN(C)CCc1nnc2cc(-c3ccccc3)c3cc(Cl)ccc3n12 | > 50 | – | > 50 | – | > 50 | > 50 | 40 | – | > 50
CN(C)CCc1nnc2n1-c1ccccc1C(c1ccccc1)=NC2 | 30 | – | 10 | > 50 | 20 | > 50 | 40 | – | > 50
CC(N)Cc1nnc2n1-c1ccccc1C(c1ccccc1Cl)=NC2 (configuration not stated) | > 50 | – | > 50 | 10 | > 50 | > 50 | 20 | – | > 50
CN(C)CCCc1nnc2n1-c1ccc(Cl)cc1C(c1ccccc1Cl)=NC2 | 0.2 | – | 25 | 2.2 | > 50 | 2.2 | 25 | – | 2.6
CCN(CC)Cc1nnc2n1-c1ccc(Cl)cc1C(c1ccccc1)=NC2 | 0.6 | 0.08 | – | > 50 | – | 3.1 | – | 0.08 | 2.6
Clc1ccc2c(c1)C(c1ccccc1)=NCc1nnc(CN3CCN(c4ccccc4)CC3)n1-2 | > 30 | 159 | > 30 | > 50 | > 30 | > 30 | > 30 | 159 | > 30
Clc1ccc2c(c1)C(c1ccccc1)=NCc1nnc(CCCN3CCCC3)n1-2 | 35.4 | 14 | > 50 | > 50 | 25 | 4.4 | 42 | 16 | > 50
NCCc1nnc2n1-c1ccc(Br)cc1C(c1ccccc1)=NC2 | 30 | – | 7 | > 50 | > 50 | > 50 | 20 | – | 20
C[N+](C)([O-])Cc1nnc2n1-c1ccc(Cl)cc1C(c1ccccc1)=NC2 | 0.6 | – | 5.3 | 5.3 | > 50 | 0.3 | > 50 | – | 0.8
CSc1ccc2c(c1)C(c1ccccc1)=NCc1nnc(CN(C)C)n1-2 | 10 | – | 10 | > 50 | > 50 | 9 | 40 | – | 10
CN(C)Cc1nnc2n1-c1ccc(Cl)cc1C(c1ccccc1)=NC2 [ADINAZOLAM] | 1.6 | – | – | 5 | – | 0.9 | – | 0.13 | 0.7
CN(C)CCCN1c2ccccc2CCc2ccccc21 [IMIPRAMINE] | – | 7 | 1.3 | > 50 | 0.9 | – | – | 7 | 21
